From patent EP4755889A1, “COMPOUND FOR DETECTING AMYLOID-BETA OLIGOMER AND METHOD FOR DIAGNOSING DEGENERATIVE BRAIN DISEASE USING SAME” (Amyloid Solution Inc., priority 2024, dated 2025)

Columns and labels:
Aβ1-42 oligomers [1] = molecular target: T1, Aβ1-42 oligomers (Homo sapiens, UniProt P05067); test: Selectivity for Aβ1-42 over tau domain (fluorescence); assay type: binding; settings: tau repeat domain 3 aggregates
T1 construct: Aβ1-42 peptide was aggregated at 37 °C for 8 hours
Procedure: Considering that tau protein aggregation is also a major pathological feature of AD, the selectivity of IK15j for Aβ1-42 over tau domains was further evaluated. […] Since repeat domain 3 is a core region of tau aggregates, IK15j was incubated with the tau domain or with Aβ1-42, and the resulting changes in fluorescence intensity were compared. Briefly, Aβ1-42 and tau aggregate samples were each treated with IK15j, and the fluorescence intensity was measured. As a result, the signal of IK15j increased in the presence of Aβ1-42 oligomers compared to that of the tau domain (FIG. 3E).

Aβn-(n+5) (n = 1 to 37) = test: Mapping Amyloid Plate (MAP): binding to immobilized Aβ1-42 hexamer fragments; settings: MAP treated with IK15j for 24 hours
Procedure: A Mapping Amyloid Plate (MAP) for investigating the target site of the compound of the present disclosure on Aβ1-42 fragments or Aβ1-42 oligomers was prepared with reference to Korean Patent Application No. 10-2023-0133625, which is incorporated herein by reference in its entirety.
Briefly, to remove the bovine serum albumin coating from the plate, each well of the plate was washed three times with 200 µL of wash buffer (0.1 M sodium phosphate, 0.15 M sodium chloride, 0.05 % Tween-20, pH 7.2). Full-length and fragmented peptides of Aβ1-42 were individually dissolved in DMSO to prepare […] stock solutions, which were then diluted with binding buffer (0.1 M sodium phosphate, 0.15 M sodium chloride, 10 mM EDTA, pH 7.2) to prepare 50 µg/mL peptide solutions (5 % DMSO). 100 µL of the peptide solution was added to each well and allowed to react with the maleimide at room temperature overnight. After peptide immobilization, unbound peptides were removed by washing three times with 200 µL of wash buffer. […]
Two conditions were prepared to confirm whether the compound of the present disclosure targets the structure or the sequence of Aβ oligomers. […] The fluorescence intensity of both plates was measured using a microplate reader (λex = 285 nm/λem = 475 nm). […]

Aβ oligomers = molecular target: T2, Aβ oligomers (Homo sapiens, UniProt P05067); test: Detection of Aβ oligomers spiked into human plasma; assay type: binding; settings: IK15j (100 µM) for 8 hours
T2 construct: Aβ1-42 peptide was aggregated at 37 °C for 8 hours
Procedure: Aβ1-42 peptide (1,000, 100, 10, 1, 0.1, 0.01, and 0.001 pg/mL) was aggregated at 37 °C for 8 hours and added to human plasma (Sigma-Aldrich, USA). Then, each plasma sample was treated with the compound of the present disclosure (100 µM) for 8 hours at room temperature. The signal of each sample was detected using a microplate reader (λex = 285 nm / λem = 475 nm).
To investigate whether the compound of the present disclosure interacts with Aβ oligomers in plasma, Aβ oligomers were spiked into human plasma (at 100, 10, 1, 0.1, 0.01, 0.001, and 0 pg/mL) and treated with IK15j (100 µM) for 8 hours, as described in Reference Example 9.

albumin = molecular target: T3, albumin (Homo sapiens, UniProt P02768); test: Selectivity for blood proteins: albumin; assay type: binding; settings: IK15j (25 µM)
T3 construct: purchased Sigma-Aldrich
Procedure: Aβ1-42 peptide was aggregated at 37 °C for 8 hours, and 25 µM of Aβ1-42 oligomers, albumin (Sigma-Aldrich, USA), and fibrinogen (Sigma-Aldrich, USA) were seeded into a black microplate. Each sample was treated with IK15j (100 µM) for 8 hours at room temperature. The signal of each sample was detected using a microplate reader (λex = 285 nm / λem = 475 nm).
Excluding water, the solid components of plasma consist of coagulation factors and plasma proteins. Albumin is the most abundant protein in plasma, and fibrinogen is a major coagulation factor in plasma. Considering the possibility that fibrinogen or albumin might interact with AD diagnostic tools and interfere with compound selectivity, IK15j (25 µM) was incubated with Aβ1-42, albumin, or fibrinogen as described in Reference Example 10, and the fluorescence signal of each sample was measured to evaluate the selectivity of the compound of the present disclosure against these proteins.

Aβ1-42 oligomers [2] = molecular target: T1, Aβ1-42 oligomers; test: Co-incubation with Aβ1-42 oligomers and albumin; assay type: binding; settings: co-incubated with Aβ1-42 oligomers and albumin
Procedure: Full-length Aβ1-42 peptide was immobilized on a maleimide-activated microplate. Then, the plate was treated with additional Aβ1-42 peptide (10 µM) at 37°C for 8 hours. After peptide immobilization, unbound peptides were removed by washing three times with 200 µL of wash buffer. To form albumin-Aβ oligomer complexes, the plate was treated with albumin (10 µM, Sigma-Aldrich, USA) at room temperature for 24 hours, and unbound residues were removed by washing three times with 200 µL of wash buffer. The control Aβ oligomer wells were not treated with albumin. Each well was treated with the compound of the present disclosure (100 µM), and the signal of each sample was detected using a microplate reader (λex = 285 nm / λem = 475 nm).
In addition, to investigate whether albumin interferes with the binding between IK15j and Aβ1-42 oligomers, IK15j was co-incubated with Aβ1-42 oligomers and albumin as described in Reference Example 11, and the fluorescence signal of each sample was analyzed.

T1 sequence (P05067 672-713): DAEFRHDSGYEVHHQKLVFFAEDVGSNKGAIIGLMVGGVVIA
T2 sequence (P05067 672-713): as above
T3 sequence (P02768 25-609, species assumed): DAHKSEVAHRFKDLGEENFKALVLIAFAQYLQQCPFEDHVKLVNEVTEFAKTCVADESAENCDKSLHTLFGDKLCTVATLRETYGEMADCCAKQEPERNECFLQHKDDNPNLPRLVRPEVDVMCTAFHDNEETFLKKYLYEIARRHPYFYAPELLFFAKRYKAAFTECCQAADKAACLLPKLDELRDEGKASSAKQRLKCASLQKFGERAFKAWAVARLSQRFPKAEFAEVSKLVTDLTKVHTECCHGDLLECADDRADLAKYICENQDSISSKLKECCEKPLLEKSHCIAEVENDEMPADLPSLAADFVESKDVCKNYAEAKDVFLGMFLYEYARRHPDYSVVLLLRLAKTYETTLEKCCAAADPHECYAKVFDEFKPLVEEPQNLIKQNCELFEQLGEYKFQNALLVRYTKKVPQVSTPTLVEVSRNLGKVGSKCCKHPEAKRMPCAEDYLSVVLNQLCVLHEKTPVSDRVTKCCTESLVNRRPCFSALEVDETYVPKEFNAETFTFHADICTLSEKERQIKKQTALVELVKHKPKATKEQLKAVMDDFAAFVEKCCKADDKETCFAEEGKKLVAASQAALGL

signal in the presence of Aβ1-42 oligomers compared to the tau domain (Aβ1-42 oligomers [1]): increased
signal across all Aβ fragments (Aβn-(n+5) (n = 1 to 37); heatmap): relatively low across all fragments
signal in spiked human plasma compared to blank human plasma (0 pg/mL) (Aβ oligomers; 1 pg/mL Aβ oligomers spiked): increased significantly
increase in fluorescence intensity compared to the control (Aβ oligomers; 10-100 pg/mL Aβ spiked human plasma samples): 52%
interaction with albumin (albumin): did not interact
SMILES: Cc1ccc2c(c1)c(-c1ccccc1)cn1c(C)cc(C#N)c21 [IK15j, 3,8-dimethyl-6-phenylpyrrolo[2,1-a]isoquinoline-1-carbonitrile]
signal in Aβ fragments compared to Aβ1-42 (Aβn-(n+5) (n = 1 to 37)): increase in IK15j signal was observed in 10 Aβ fragments (Aβ14-19 to Aβ23-28)
signal of Aβ1-42 oligomer and albumin sample compared to Aβ1-42 oligomer-only sample (Aβ1-42 oligomers [2]): decreased compared to the Aβ1-42 oligomer-only sample, the difference was not significant
